A short description of data set [1]: Pharmacokinetics in rats after oral administration. Format: in vivo, SD rats. Here is the method: (§1) Male SD rats weighing 250-300 g, or male beagles weighing 9-10 kg, were fasted overnight before the experiment. The object compounds were dissolved in 30% sulfobutylated beta-cyclodextrin (SBE-β-CD), and orally administrated to the rats at a dose of 20 mg/kg or to the beagles at a dose of 5 mg/kg. Blood samples were taken at 15 minutes, 30 minutes, 1 hour, 2 hours, 3 hours, 4 hours, 6 hours, 8 hours and 24 hours after administration. 0.3 ml of blood was collected at every time point, placed in a centrifuge tube containing K2-EDTA (ethylenediamine tetraacetic acid dipotassium) and centrifuged (2,000 g, 10 minutes, 4° C.) to collect plasma, which was then stored in an ultra cold storage freezer at −80° C. 50 μL of plasma sample was mixed with 5 μL of internal standard (IS), and then extracted with ethyl acetate. After vacuum drying, the residue was re-dissolved in acetonitrile. The sample was filtered and injected into LC-MS/MS for analysis.

Data set [2] in a line: Pharmacokinetics in beagles after oral administration. Format: in vivo. Conditions: male, beagle, dog, 5 mg/kg, plasma. Here is the method:
as §1

Data set [3] deals with H1975 xenograft tumor. Nature of the data set: Potency assay of tumor model, dose-effect relationship, 22 consecutive days. Format: in vivo, Balb/C nude mice. The following applies: for Tumor inhibition T/C value (%) / Weight change (%): po, qd. Here is the method:
(§2) Balb/C nude mice were purchased from Beijing Vital River Laboratory Animal Technology Co., Ltd., and housed in SPF animal room. The human non-small-cell lung cancer cell line H1975 in a culture dish was collected by trypsin-EDTA (0.25% trypsin, 1 mM EDTA), and then washed with a serum-free PBS solution. Lastly, the cells were implanted after diluted in a serum-free medium. Only the single cell suspension with a survival rate over 90% (Trypan blue rejection) can be used for injection. 5 million cells suspended in a 0.1 ml serum-free culture were injected into the front right flanking subcutaneous region of each mouse by using a 1 ml syringe and a 25G syringe needle, and the blood vessel was carefully avoided. The tumor size was measured in about one week after implantation. A caliper rule was used to measure the tumor size. The tumor volume was calculated by the following formula: tumor volume=(length×width^2)/2.
Further assay was performed to assess the dose-effect relationship of the inhibition of H1975 transplantation tumor growth by the compounds 51 and 91. […] These compounds were dissolved in 30% sulfobutylated beta-cyclodextrin (SBE-β-CD) and 1N HCl (pH 3-4), respectively. […]

Data set [4] has as its target T1, EGFR T790M/L858R (Homo sapiens, UniProt P00533, L858R/T790M).
T1 construct: purchased Invitrogen PR8911A
Nature of the data set: Mutant EGFR T790M/L858R activity inhibition assay (Caliper mobility shift). Format: biochemical. The following applies: read-out: enzyme activity inhibition (IC50) EGFR T790M/L858R. Put shortly:
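Compound added in 10% DMSO at 5-fold final concentration; substrate conversion read by Caliper mobility shift. Inhibition = (max−conversion)/(max−min)×100, with max from DMSO no-compound wells and min from no-enzyme wells; IC50 from fitted concentration–response curve.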

Data set [5] has as its system H358. The experiment in a line: Inhibition assay on tumor cell proliferation (CellTiter-Glo), H358. In kind it is cell-based, Human. Conditions: Homo sapiens, NCI-H358; H358 (wild-type EGFR), 72 hours, 10% bovine serum. The procedure, abridged: (§3)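 Viability from ATP content by CellTiter-Glo luminescence; inhibition normalised to DMSO (max) and medium-only (min) wells, IC50 by sigmoidal dose-response fitting. LOVO and H358 carry wild-type EGFR; HCC827 has exon 19 deletion.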

Data set [6] concerns H1975 xenograft tumor. The experiment in a line: Potency assay of tumor model, 16 consecutive days. In kind it is in vivo, Balb/C nude mice. The following applies: oral. Here is the method: as §2
This experiment studied the inhibition of tumor growth in H1975 xenograft tumor model by the compounds 20, 50, 91, and 118. When the mean volume of H1975 tumor reached about 260 mm^3, the animals were divided into 5 oral administration groups, that is, excipient control group and groups of oral administration of compound 20, compound 50, compound 91, and compound 118, respectively (n=8/group). These compounds were dissolved in 30% sulfobutylated beta-cyclodextrin (SBE-β-CD) and 1N HCl (pH 3-4). […]

For data set [7], the system named is H1975. The experiment in a line: Inhibition assay on tumor cell proliferation (CellTiter-Glo), H1975. In kind it is cell-based, Human. Conditions: Homo sapiens, NCI-H1975; H1975 (L858R and T790M EGFR double mutation), 72 hours, 10% bovine serum. Background: Cellular ATP, detected with luciferase, serves as a proxy for viable cell number.
Data set [8] has as its system HCC827. The experiment in a line: Inhibition assay on tumor cell proliferation (CellTiter-Glo), HCC827. Conditions: Homo sapiens; HCC827 (ex19del), 72 hours, 10% bovine serum. In kind it is cell-based. Here is the method:
By using a CellTiter-Glo luminescence cell viability test kit (Promega, # G7572), the content of adenosine triphosphate (ATP) was determined to assess the cell viability.
Human colon cancer cell line LOVO and human non-small-cell lung cancer H358 express wild-type EGFR. Human non-small-cell lung cancer cell line HCC827 carries deletion mutation in exon 19 (ex19del). Those cell lines are purchased from Shanghai Fudan IBS Cell Resource Center and American Tissue Culture Collection (ATCC).
The assay procedure is as follows. The cells in a cell culture plate were digested with a pancreatic enzyme, re-suspended in a DPBS culture medium, and had the cell density counted by Scepter automated cytometer (Millipore # PHCC00000). The cells were diluted to a solution of 44,000 cells per ml. The cell solution with adjusted density was added to the cell assay plate at 90 microliters per well. The plate was placed in an incubator with 5% CO2 at 37° C. for 24 hours of incubation, and then added with different concentrations of subject compounds. The cells were incubated for 72 hours with the compounds in presence of 10% bovine serum. The content of ATP was determined by a CellTiter-Glo® Luminescent Cell Viability Assay kit (see the manufacturer's instruction for details) to evaluate cell-growth inhibition.
Briefly, 30 μl of CellTiter-Glo® reagent was added to each well, and then shaken for 10 minutes to induce cell lysis. The fluorescent signal was detected and recorded by Fluoroskan Ascent FL (Thermo). The max signal value was obtained from the cells treated by dimethyl sulfoxide for 72 hours. The min signal value was obtained from the medium alone (the number of the cells was 0). Inhibitory rate %=(max signal value−compound signal value)/(max signal value−min signal value)×100. The data was processed by GraphPad Prism V5.0 software (GraphPad Software, San Diego, Calif.). Sigmoidal dose-response curve fitting was performed to calculate the IC50 value.

Data set [9] deals with LOVO. The experiment in a line: Inhibition assay on tumor cell proliferation (CellTiter-Glo), LOVO. In kind it is cell-based, Human. The following applies: Homo sapiens; LOVO (wild-type EGFR), 72 hours, 10% bovine serum. The procedure, abridged:
as §3

Where [10] appears, read: male, SD, rat, 20 mg/kg, plasma.

pIC50: −log10 of the molar value. Bounds are passed on as bounds.

One may read the AUC(0-inf) as total exposure, with the tail of the curve extrapolated. Low values mean less exposure, high ones more exposure. In general, Cmax refers to the highest concentration seen after dosing. In general, Tmax refers to the time from dosing to the highest level. The term half-life denotes the time in which the quantity being followed falls by half. Higher therefore signals slow decline. The melting point is the temperature of the solid-liquid transition.

T1 sequence (P00533 25-1210 T790M/L858R): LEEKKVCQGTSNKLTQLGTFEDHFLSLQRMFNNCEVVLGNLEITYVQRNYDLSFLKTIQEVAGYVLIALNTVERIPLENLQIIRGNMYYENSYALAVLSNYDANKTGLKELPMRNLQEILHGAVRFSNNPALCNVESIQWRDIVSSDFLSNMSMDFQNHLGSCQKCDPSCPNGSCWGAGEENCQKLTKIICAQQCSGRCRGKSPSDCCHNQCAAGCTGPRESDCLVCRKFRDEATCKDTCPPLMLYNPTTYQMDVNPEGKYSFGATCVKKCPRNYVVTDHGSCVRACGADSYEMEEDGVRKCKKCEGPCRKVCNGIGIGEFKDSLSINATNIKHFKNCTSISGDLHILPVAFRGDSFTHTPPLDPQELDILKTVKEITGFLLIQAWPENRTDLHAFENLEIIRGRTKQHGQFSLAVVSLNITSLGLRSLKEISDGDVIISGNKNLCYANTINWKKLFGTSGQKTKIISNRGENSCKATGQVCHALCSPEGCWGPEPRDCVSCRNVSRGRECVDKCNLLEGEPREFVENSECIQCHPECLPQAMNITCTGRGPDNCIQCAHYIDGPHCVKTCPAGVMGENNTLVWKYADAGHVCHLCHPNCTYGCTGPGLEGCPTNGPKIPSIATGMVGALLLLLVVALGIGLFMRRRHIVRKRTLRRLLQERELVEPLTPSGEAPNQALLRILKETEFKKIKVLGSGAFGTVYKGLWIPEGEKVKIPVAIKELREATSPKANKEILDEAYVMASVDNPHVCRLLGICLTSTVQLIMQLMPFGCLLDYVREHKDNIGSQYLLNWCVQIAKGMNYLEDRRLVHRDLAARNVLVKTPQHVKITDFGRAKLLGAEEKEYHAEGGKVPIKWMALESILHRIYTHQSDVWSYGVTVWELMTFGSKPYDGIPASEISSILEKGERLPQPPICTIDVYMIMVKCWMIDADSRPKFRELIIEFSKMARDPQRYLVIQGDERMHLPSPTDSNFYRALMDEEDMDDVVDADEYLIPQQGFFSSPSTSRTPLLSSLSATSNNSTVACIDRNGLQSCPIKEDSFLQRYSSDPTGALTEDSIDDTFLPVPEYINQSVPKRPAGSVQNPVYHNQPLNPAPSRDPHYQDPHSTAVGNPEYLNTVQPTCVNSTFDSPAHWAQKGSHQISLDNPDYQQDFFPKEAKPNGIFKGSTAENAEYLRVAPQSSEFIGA

`C=CC(=O)Nc1cc(Nc2nccc(-n3c(=O)n(C)c4cc(F)ccc43)n2)c(OC)cc1N(C)CCN(C)C` [Compound 50, N-(2-((2-(dimethylamino)ethyl)(methyl)amino)-5-((4-(5-fluoro-3-methyl-2-oxo-2,3-dihydro-1H-benzo[d]imidazol-1-yl)pyrimidin-2-yl)amino)-4-methoxyphenyl)acrylamide] had a melting point of 208 to 210 °C. Further, in data set [1], the “absorption / blood exposure after oral administration (in words)” value was “well absorbed, with high blood exposure”. In data set [1] (setting [10]), the AUC(0-inf) worked out at 0.598 µg·h/mL, the Cmax was found to be 0.173 µg/mL, the Tmax stood at 1 h and the half-life is 3.1 h. In addition, in data set [1] (male, SD, rat, 20 mg/kg, plasma, read-out: AUC0-24), the AUC(0-t) was determined as 0.561 µg·h/mL. Moreover, in [2], the AUC(0-inf) turned out to be 1.47 µg·h/mL, the Cmax came out at 0.428 µg/mL, the Tmax stood at 1 h and the half-life is 1.45 h. In addition, the AUC(0-t) in data set [2] (read-out: AUC0-24) turned out to be 1.42 µg·h/mL. In addition, in [3] (10 mg/kg, 22 consecutive days), the “Tumor inhibition T/C value (%)” value is reported as −65% and the “Weight change (%)” value was 0.0%. For the same molecule, in data set [3] (20 mg/kg, 22 consecutive days), the “Tumor inhibition T/C value (%)” value is recorded as −95% and the “Weight change (%)” value is −2.0%. Moreover, in data set [3] (40 mg/kg, 22 consecutive days), the “Tumor inhibition T/C value (%)” value is on record as −100% and the “Weight change (%)” value is −4.4%. Further, the “tumor outcome (in words)” value in [3] (high dose (40 mg/kg), 22 consecutive days) was “the tumor disappeared completely”. Further, the “dose dependence of inhibition of H1975 xenograft tumor growth (in words)” value in [3] (oral, 10, 20 and 40 mg/kg) is “dose dependently inhibited”. The pIC50 in [4] is above 9.00. The pIC50 in data set [5] was 6.00 to 7.00. Moreover, in [6] (30 mg/kg qd as printed, 16 days after administration), the T/C value is −97%. The “inhibition of growth of H1975 xenograft tumor (in words)” value in data set [6] (30 mg/kg qd, 16 days) is given as “tumor regression”. In [7], this molecule showed a pIC50 above 8.00.
Take `C=CC(=O)Nc1cccc(Nc2nc(Nc3ccc(N4CCN(C(C)=O)CC4)cc3OC)ncc2C(F)(F)F)c1` [CO-1686, Rociletinib, reference compound]: the pIC50 in data set [8] was 6.00 to 7.00; in [5], 6.00 to 7.00; in data set [7], 7.30 to 8.00; in data set [9] it was below 6.00.
`C=CC(=O)Nc1cc(Nc2nccc(-n3ccc4cc(CO)ccc43)n2)c(OC)cc1N(C)CCN(C)C` [Compound 39, N-(2-((2-(dimethylamino)ethyl)(methyl)amino)-5-((4-(5-(hydroxymethyl)-1H-indol-1-yl)pyrimidin-2-yl)amino)-4-methoxyphenyl)acrylamide]: the melting point is 67 to 68 °C. For the same molecule, the pIC50 in data set [8] was above 8.00. For the same molecule, the pIC50 in [4] was above 9.00. The same molecule gave a pIC50 in data set [5] of 6.00 to 7.00. In addition, the pIC50 in data set [7] was above 8.00. This molecule showed a pIC50 in [9] below 6.00.
For `C=CC(=O)Nc1cc(Nc2nccc(-c3cn(C)c4ccccc34)n2)c(OC)cc1N(C)CCN(C)C` [AZD9291, Osimertinib, reference compound], the pIC50 was above 8.00 in data set [8], 6.00 to 7.00 in data set [5], above 8.00 in [7] and below 6.00 in data set [9]. Besides, the “Tumor inhibition T/C value (%)” value in data set [3] (25 mg/kg, 22 consecutive days) is listed as −100%. The “Weight change (%)” value in data set [3] (25 mg/kg, 22 consecutive days) was −7.2%.

For the origin of these results see patent US11267802B2 (BEBETTER MED INC., priority 2015, dated 2022).
